Measurements: US10125116B2, “Compounds and methods for treating mammalian gastrointestinal microbial infections” (Brandeis University, priority 2009, dated 2018)
Read-outs that look alike come from different tables or passages of the source.

What was measured:
[1] = target: T1, recombinant C. parvum IMPDH (Cryptosporidium parvum, UniProt Q8T6T2); experiment: C. parvum IMPDH inhibition (NADH production); format: biochemical
T1 construct: made in house; host or cells: bacteria (guaB strains of E. coli)
T1 sequence (Q8T6T2 1-400): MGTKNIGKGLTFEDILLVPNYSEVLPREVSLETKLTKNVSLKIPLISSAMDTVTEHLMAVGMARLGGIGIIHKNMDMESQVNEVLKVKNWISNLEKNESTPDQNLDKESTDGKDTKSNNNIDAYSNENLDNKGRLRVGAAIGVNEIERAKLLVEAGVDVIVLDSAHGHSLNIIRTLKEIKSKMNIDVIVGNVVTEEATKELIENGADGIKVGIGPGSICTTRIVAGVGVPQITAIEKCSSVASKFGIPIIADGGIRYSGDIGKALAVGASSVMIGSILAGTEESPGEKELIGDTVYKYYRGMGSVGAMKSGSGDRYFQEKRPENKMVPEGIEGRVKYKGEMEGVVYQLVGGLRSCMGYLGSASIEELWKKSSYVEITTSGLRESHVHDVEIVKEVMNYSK
Description: Recombinant C. parvum IMPDH was expressed in bacteria and purified as described previously [N. N. Umejiego et al., J Biol Chem 279, 40320-40327 (2004)].
Inhibitors at varying concentrations (25 pM-5 μM) were incubated with 10 nM C. parvum in assay buffer for 10 min at room temperature. The reaction was initiated by the addition of NAD and IMP for final concentrations of 300 μM and 150 μM, respectively. Selectivity was measured against human type II and T. foetus IMPDH at 25° C. in assay buffer. The former was assayed in the presence of 300 μM NAD 40 μM IMP and 160 nM human type II IMPDH, and the latter in the presence of 300 μM NAD 20 μM IMP and 28 nM T. foetus IMPDH. The production of NADH was monitored spectrophotometrically at 340 nm (=6.22 mM^−1 cm^−1) using a Hitachi U-2000 spectrophotometer.
IC50 values were calculated for each inhibitor according to the following equation: υi=υo/(1+[I]/IC50), using the SigmaPlot program (SPSS, Inc.).
The CpIMPDH inhibitory activity of the compounds was assessed by monitoring the production of NADH by fluorescence (FIG. 55). […]
Evaluation of Cp-IMPDH inhibitory activity for the various prepared compounds was conducted utilizing an assay measuring the conversion of IMP to XMP by monitoring the production of NADH by fluorescence emission in the presence of varying inhibitor concentrations. […]

T. gondii-CpIMPDH = T. gondii-CpIMPDH fluorescence growth assay; format: cell-based, Toxoplasma gondii
C. parvum [2] = settings: read-out: reported EC50 C. parvum growth (previous studies); cited from earlier work
C. parvum [3] = experiment: high content imaging C. parvum growth assay; format: cell-based, Cryptosporidium parvum
Description: FIG. 58 depicts an overview and validation of the high content imaging C. parvum growth assay. A, schematic representation of differential labelling of parasite and host. B, detail of an exemplary micrograph obtained through the screening routine. Numbers indicate object identifies after segmentation analysis. […] For panel D, the ratio of the number of FITC-VVL labelled C. parvum parasites to DAPI labelled HCT-8 host cell nuclei was used to standardize each well and percent C. parvum growth (solid line) was normalized to parasites receiving DMSO alone. […] Paromomycin in addition to reducing parasite number also reduces the average size of the parasite (dashed line). The mean parasite area was measured per well for each treatment in triplicate. The percent area was then calculated by normalizing to the mean area of parasites receiving DMSO alone.
A direct and efficient assay of Cryptosporidium proliferation was also needed. Fluorescent Vicia villosa lectin (VVL) has been used previously to score C. parvum growth by fluorescence microscopy. VVL binds with high specificity to the C. parvum parasite, labelling sporozoites, intracellular stages, the inner oocyst wall, but not the outer oocyst wall. To accommodate the increasing number of compounds entering the SAR pipeline, we adapted the FITC-VVL immunofluorescence assay to a 96-well plate format and developed an automated imaging and analysis pipeline. […] Plates are fixed, permeabilized and stained with FITC-VVL and DAPI to numerate parasites and host cells, respectively. Using a spinning disc microscope, we imaged a […] of each well, providing a robust sample typically consisting of ˜6000 host cells and ˜2000 parasite stages. The instrument is programmed to automatically move from well to well, focus and acquire […] deep image stacks for the entire plate. A series of automated image compression, manipulation, and object-finding algorithms was optimized for the recognition of host cells and parasites using the DAPI and FITC channels. […]

HCT-8 cells = experiment: fluorescent HCT-8 host cell growth assay; format: cell-based, human
Description: The differentiation of selective antiparasitic effects from those that are a secondary consequence of a host cell effect is a critical issue in drug discovery for intracellular parasites. Cytotoxicity assays commonly reflect plasma membrane integrity, and are a crude measure of host cell effects—it is conceivable that more subtle perturbations of host cell metabolism can have an adverse effect on parasite proliferation. Therefore we sought to develop a simple and inexpensive assay of host cell growth. The human ileocecal adenocarcinoma epithelial cell line, HCT-8, which is commonly used to maintain C. parvum infection in tissue culture, was engineered to constitutively express a green fluorescent protein (GFP). Growth of this cell line was monitored daily using a fluorescent plate reader. […] These experiments validate the use of the fluorescent HCT-8 cell growth assay.
HCT-8 cells were transfected with the pmaxGFP plasmid (Amaxa) using Lipofectamine (Invitrogen) following the manufactures instruction. Fluorescent lines were then selected and cloned using FACS. Confluent monolayers of pmaxGFP expressing cells were harvested from T75 flasks and passed through a 40 μm cell strainer. Cells were then seeded at 4000 cells per well in a volume of 200 μL into black, optical quality, thin bottom, 96-well plates (DB Falcon). All test compounds were diluted in DMSO to prepare a 200× working stock for each dilution. Appropriate wells were spiked with 1 μl such that the final concentration of DMSO was 0.5%. The fluorescence was read daily with a SpectraMax M22/M2e (Molecular Devices) plate reader (Ex 485, Em 530) for 6-7 days. The percent inhibition was calculated on a day within the exponential phase of growth.

SMILES | CpIMPDH inhibition, result in words [1] | selective block of T. gondii-CpIMPDH growth, in words (T. gondii-CpIMPDH) | EC50 (C. parvum [2]) [µM] | mean parasite area, in words (C. parvum [3]) | EC50 (C. parvum [3]; Cryptosporidium parvum, in HCT-8 host cells) [µM] | reduction in parasite number (C. parvum [3]; very high concentrations) [%] | host cell (HCT-8) growth effect, in words (HCT-8 cells)
O=C(Nc1ccc(Cl)cc1)C(Oc1cccc2ccccc12)c1ccccc1 (stereo not shown) [A66] | do not inhibit CpIMPDH in vitro | none of these compounds selectively blocked the growth | – | – | – | – | –
NC[C@@H]1O[C@H](O[C@H]2[C@@H](O)[C@H](O[C@@H]3[C@@H](O)[C@H](N)C[C@H](N)[C@H]3O[C@H]3O[C@H](CO)[C@@H](O)[C@H](O)[C@H]3N)O[C@@H]2CO)[C@H](N)[C@@H](O)[C@@H]1O [paromomycin] | – | – | 65 to 130 | significantly reduce the mean parasite area in a dose responsive manner | 97 | ~70 | negligible effects on the growth of these cells
